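Grown in 96-well plates, cells were treated for 48 hours with each compound at five concentrations. Insufficient inhibition: endpoint recorded as highest concentration tested. The concentration for 50% growth inhibition is given as GI50.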 Active and inactive are the calls of the source. Cut-off read from the data, not from the text of the source: active = GI50 up to about 1.1 µM and inactive = higher.
Columns and labels:
Experiment in all cases: NCI tumour cell line growth inhibition, 48 h
ACHN = system: ACHN
COLO 205 = system: COLO 205
SK-MEL-2 = system: SK-MEL-2
SN12C = system: SN12C
M14 = system: M14
U-251 = system: U-251
OVCAR-3 = system: OVCAR-3
PC-3 = system: PC-3
EKVX = system: EKVX
SW-620 = system: SW-620
HL-60 = system: HL-60
KM12 = system: KM12
HT-29 = system: HT-29
SNB-75 = system: SNB-75
Hs-578T = system: Hs-578T
SK-MEL-5 = system: SK-MEL-5
T47D = system: T47D
BT-549 = system: BT-549
NCI-H226 = system: NCI-H226
K562 = system: K562

Structure (SMILES) | GI50 (ACHN) | GI50 (COLO 205) | GI50 (SK-MEL-2) | GI50 (SN12C) | GI50 (M14) | GI50 (U-251) | GI50 (OVCAR-3) | GI50 (PC-3) | GI50 (EKVX) | GI50 (SW-620) | GI50 (HL-60) | GI50 (KM12) | GI50 (HT-29) | GI50 (SNB-75) | GI50 (Hs-578T) | GI50 (SK-MEL-5) | GI50 (T47D) | GI50 (BT-549) | GI50 (NCI-H226) | GI50 (K562)
c1csc(-c2ccc(-c3cccs3)c3nsnc23)c1 | > 65.2 µM (inactive) | 6.56 µM (inactive) | > 48.6 µM (inactive) | > 60.3 µM (inactive) | 37.8 µM (inactive) | 30.2 µM (inactive) | 2.04 µM (inactive) | > 54 µM (inactive) | 2.23 µM (inactive) | 17.1 µM (inactive) | 5.4 µM (inactive) | 0.327 µM (active) | 49.8 µM (inactive) | 19.7 µM (inactive) | 16.5 µM (inactive) | > 33.6 µM (inactive) | 0.141 µM (active) | > 52.7 µM (inactive) | > 33.5 µM (inactive) | 9.68 µM (inactive)
O=C1c2cccc3cccc(c23)C(=O)N1CCCNCCCNCCCCNCCCNCCCN1C(=O)c2cccc3cccc(c23)C1=O | 3.97 µM (inactive) | 1.14 µM (inactive) | 4.01 µM (inactive) | 3.44 µM (inactive) | 4.06 µM (inactive) | 1.84 µM (inactive) | 4.67 µM (inactive) | 3.23 µM (inactive) | 5.48 µM (inactive) | 2.03 µM (inactive) | 0.27 µM (active) | 2.74 µM (inactive) | 1.39 µM (inactive) | 2.52 µM (inactive) | 1.68 µM (inactive) | 5.93 µM (inactive) | 5.26 µM (inactive) | 3.74 µM (inactive) | 4.46 µM (inactive) | 3.25 µM (inactive)
COc1ccc(C2c3c(-c4ccccc4)nn(-c4ccccc4)c3Oc3ncn(N)c(=N)c32)cc1OC (stereo not given) | 1.86 µM (inactive) | 2.23 µM (inactive) | 1.83 µM (inactive) | 2.51 µM (inactive) | 2.04 µM (inactive) | 4.53 µM (inactive) | 1.63 µM (inactive) | 1.95 µM (inactive) | 1.91 µM (inactive) | 2.9 µM (inactive) | 2.62 µM (inactive) | 1.83 µM (inactive) | 1.93 µM (inactive) | 1.62 µM (inactive) | 1.97 µM (inactive) | 1.94 µM (inactive) | 1.97 µM (inactive) | 4.74 µM (inactive) | 2.46 µM (inactive) | 3.82 µM (inactive)
CCOC(=O)C(SCCO)C(C(=O)OCC)n1cnc2c(=O)[nH]c(NC(C)=O)nc21 (stereo not given) | > 100 µM (inactive) | > 100 µM (inactive) | > 100 µM (inactive) | > 100 µM (inactive) | > 100 µM (inactive) | > 100 µM (inactive) | > 100 µM (inactive) | > 100 µM (inactive) | > 100 µM (inactive) | > 100 µM (inactive) | > 100 µM (inactive) | > 100 µM (inactive) | > 100 µM (inactive) | > 100 µM (inactive) | > 100 µM (inactive) | > 100 µM (inactive) | > 100 µM (inactive) | > 100 µM (inactive) | > 100 µM (inactive) | > 100 µM (inactive)
N#C/C(=C1C=C(Br)/C(=N\O)C=C\1Cl)c1cccc2ccccc12 | 11 µM (inactive) | 2.29 µM (inactive) | 2.48 µM (inactive) | 8.49 µM (inactive) | 2.77 µM (inactive) | 2.96 µM (inactive) | 2.76 µM (inactive) | 2.89 µM (inactive) | 10.8 µM (inactive) | 3.53 µM (inactive) | 2.3 µM (inactive) | 3.92 µM (inactive) | 2.26 µM (inactive) | 0.121 µM (active) | 3.55 µM (inactive) | 3.42 µM (inactive) | 2.38 µM (inactive) | 7.43 µM (inactive) | 2.17 µM (inactive) | 3.51 µM (inactive)
O=c1c(C(c2ccc3c(c2)Cc2ccccc2-3)c2c(O)oc3ccccc3c2=O)c(O)oc2ccccc12 | 23.9 µM (inactive) | 20.4 µM (inactive) | 31.9 µM (inactive) | 20.4 µM (inactive) | 20.5 µM (inactive) | 23.9 µM (inactive) | 31 µM (inactive) | 37.8 µM (inactive) | 48.9 µM (inactive) | 29.8 µM (inactive) | 29.2 µM (inactive) | 22.3 µM (inactive) | > 100 µM (inactive) | 20.7 µM (inactive) | 25.6 µM (inactive) | 24.5 µM (inactive) | 41.5 µM (inactive) | 27.4 µM (inactive) | > 100 µM (inactive) | 10 µM (inactive)
c1ccc2c(c1)CCN(C1=NCCO1)C2 | > 10 µM (inactive) | > 10 µM (inactive) | > 10 µM (inactive) | > 10 µM (inactive) | > 10 µM (inactive) | > 10 µM (inactive) | > 10 µM (inactive) | > 10 µM (inactive) | > 10 µM (inactive) | > 10 µM (inactive) | > 10 µM (inactive) | > 10 µM (inactive) | > 10 µM (inactive) | > 10 µM (inactive) | > 10 µM (inactive) | > 10 µM (inactive) | > 10 µM (inactive) | > 10 µM (inactive) | > 10 µM (inactive) | > 10 µM (inactive)
COc1ccc(/C=C/c2cc(=O)cc(/C=C/c3ccc(OC)c(O)c3)o2)cc1O | 2.48 µM (inactive) | 11.2 µM (inactive) | 2.69 µM (inactive) | 3.17 µM (inactive) | 2.31 µM (inactive) | 1.94 µM (inactive) | 2.52 µM (inactive) | 3.26 µM (inactive) | 4.52 µM (inactive) | 2.71 µM (inactive) | 2 µM (inactive) | 1.99 µM (inactive) | 1.98 µM (inactive) | 3.82 µM (inactive) | 3.5 µM (inactive) | 1.88 µM (inactive) | 1.98 µM (inactive) | 2.65 µM (inactive) | 5.21 µM (inactive) | 2.42 µM (inactive)
CC(C)(C)OC(=O)CN1CCNCCNCC1 | > 100 µM (inactive) | > 100 µM (inactive) | > 100 µM (inactive) | > 100 µM (inactive) | > 100 µM (inactive) | > 100 µM (inactive) | > 100 µM (inactive) | > 100 µM (inactive) | > 100 µM (inactive) | > 100 µM (inactive) | 9.55 µM (inactive) | > 100 µM (inactive) | > 100 µM (inactive) | > 100 µM (inactive) | > 100 µM (inactive) | > 100 µM (inactive) | > 100 µM (inactive) | > 100 µM (inactive) | > 100 µM (inactive) | > 100 µM (inactive)
CCc1nc(N)nc(N)c1-c1ccc(Cl)c(/N=C/N(C)C)c1 | 38.8 µM (inactive) | 65 µM (inactive) | > 100 µM (inactive) | 91.4 µM (inactive) | 52.5 µM (inactive) | 54.6 µM (inactive) | 65.6 µM (inactive) | 25.9 µM (inactive) | > 87.3 µM (inactive) | 22.3 µM (inactive) | > 39.7 µM (inactive) | 61.7 µM (inactive) | 18.8 µM (inactive) | > 96.4 µM (inactive) | > 100 µM (inactive) | 29.9 µM (inactive) | 77.3 µM (inactive) | > 81.7 µM (inactive) | > 100 µM (inactive) | 6.03 µM (inactive)
